# Earlier results in patent US20090220611A1, “Microparticles With Modified Release of At Least One Active Principle and Oral Pharmaceutical Form Comprising Same” (priority 2005, published 2009).
# Details: qualitative statement
smiles,measurement,value
Nc1nc2c(ncn2COCCO)c(=O)[nH]1 [aciclovir],water solubility,sparingly water-soluble
